Measurements taken from PubChem BioAssay (NCI).
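Exposure lasted 48 hours, with cells grown in 96-well plates and compounds tested at five concentrations. GI50 marks 50% less growth. TGI is the concentration that stops growth completely.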

How the values were obtained:
Assay in all cases: NCI tumour cell line growth inhibition, 48 h
ACHN renal = tested on: ACHN renal
CCRF-CEM leukemia = tested on: CCRF-CEM leukemia
COLO 205 colon = tested on: COLO 205 colon
DU-145 prostate = tested on: DU-145 prostate
HT29 colon = tested on: HT29 colon
MALME-3M melanoma = tested on: MALME-3M melanoma
PC-3 prostate = tested on: PC-3 prostate
SR leukemia = tested on: SR leukemia
TK-10 renal = tested on: TK-10 renal
HCC-2998 colon = tested on: HCC-2998 colon

| SMILES | TGI (ACHN renal) [µM] | TGI (CCRF-CEM leukemia) [µM] | TGI (COLO 205 colon) [µM] | TGI (DU-145 prostate) [µM] | TGI (HT29 colon) [µM] | TGI (MALME-3M melanoma) [µM] | TGI (PC-3 prostate) [µM] | TGI (SR leukemia) [µM] | TGI (TK-10 renal) [µM] | TGI (HCC-2998 colon) [µM] | GI50 (ACHN renal) [µM] | GI50 (CCRF-CEM leukemia) [µM] | GI50 (COLO 205 colon) [µM] | GI50 (DU-145 prostate) [µM] | GI50 (HCC-2998 colon) [µM] | GI50 (HT29 colon) [µM] | GI50 (MALME-3M melanoma) [µM] | GI50 (PC-3 prostate) [µM] | GI50 (TK-10 renal) [µM] | GI50 (SR leukemia) [µM] |
| --- | --- | --- | --- | --- | --- | --- | --- | --- | --- | --- | --- | --- | --- | --- | --- | --- | --- | --- | --- | --- |
| CC(=C/C=C/C=C(C)\C=C\C=C(\C)C(=O)O)/C=C/C=C(/C)C(=O)O | > 100 | > 100 | > 100 | > 100 | > 100 | > 100 | > 100 | > 100 | > 100 |  |  |  |  |  |  |  |  |  |  |  |
| COc1ccc(NC(=O)CC/C(CC(=O)C(C)(C)C)=N\NC(=O)C(=O)NN)cc1 | > 100 | > 100 | > 100 |  | > 100 | > 100 |  | > 100 | > 100 | > 100 |  |  |  |  |  |  |  |  |  |  |
| Cc1cc(O)cc2c1[C@]1(C)CCC3C(C)(C)CCC[C@]3(C)[C@H]1C2 (some centres undefined) | 33.3 | 92 | 34 | 35 | 35.5 | 39.4 | 65.1 |  | 36.4 | 38 | 19.1 | 29.6 | 18.8 | 19.1 | 22.1 | 18.5 | 23.2 | 24.7 | 18.7 |  |
| COc1cccc(/C=C/[N+](=O)[O-])c1 | 6.06 | 7.32 | 3.54 | 5.64 | 4.48 | 27.8 | 17 | 5.18 |  | 3.51 | 2.49 | 2.8 | 1.86 | 2.26 | 1.93 | 1.92 | 12.1 | 4.58 |  | 1.64 |
| COc1ccc(-c2oc(=O)ccc2-c2cc(OC)c(OC)c(OC)c2)cc1O | > 95.2 | 18.9 | 36 | > 100 | > 47.3 | > 100 | > 100 | > 23.8 | > 84.1 | 10.5 | 5.05 | 2.07 | 6.78 | 2.05 | 1.8 | 3.97 |  | 0.963 | 14.1 | 0.267 |
| O=c1cc(N2CCN(CCCCCOc3cc(O)c4c(=O)cc(-c5ccccc5)oc4c3)CC2)c2ccccc2o1 | > 100 | > 100 | > 100 | > 100 | > 100 | > 100 | > 100 | > 100 | > 100 | > 100 | > 100 | 19.3 | 70.5 | 89 | 48.3 | 17.4 | 39.2 | 43.1 | > 100 | 42.9 |
| Cc1nc2sc(C(=O)Nc3cccc4ccccc34)c(N)c2cc1C(O)c1ccccc1 (centres undefined) | 19.2 | > 100 | 2.28 | 6.67 | 14.1 | 21.2 | > 38 | > 43 | > 91.5 | 2.89 | 0.0726 | 0.0409 | 0.349 | 0.0804 | 0.193 | 0.038 | 0.0558 | 0.118 | 1.57 | 0.04 |
| C#CC1(OC(C)=O)CCC2C3CC=C4C=C(OC(C)=O)CCC4(C)C3CCC21C (centres undefined) | 70.7 | 30.5 | 58.5 | 97.4 | 40 | 33.9 |  | 35 | 51.6 | 32.9 |  |  |  |  |  |  |  |  |  |  |
| C=C1C(C2(C)C(OC(C)=O)CC(=O)OC(C)(COC(C)=O)C2CC(=O)OC)C(OC=O)C(OC(=O)C(O)C(C)CC)C2(C)C(c3ccoc3)CC(=O)C12O (centres undefined) | > 52.8 |  | > 100 | > 100 | > 100 |  | > 100 | > 100 | > 100 |  |  |  |  |  |  |  |  |  |  |  |
| COc1ccccc1C(O)(c1ccccc1)C(O)(c1ccccc1)c1ccccc1OC (centres undefined) | > 100 | > 100 | > 100 |  | > 100 | > 100 |  | > 100 | > 100 | > 100 |  |  |  |  |  |  |  |  |  |  |
| c1ccc2c(NCCCCCCNc3c4ccccc4nc4ccccc34)c3ccccc3nc2c1 | 1.72 | 1.58 | 1.58 | 2.76 | 1.77 | 2.49 |  | 0.991 | 4.9 | 1.76 |  |  |  |  |  |  |  |  |  |  |
| CC(=O)N1C/C(=C/c2ccc(Cl)cc2)C(=O)/C(=C/c2ccc(Cl)cc2)C1 | 2.05 | 3.03 | 2.01 | 2.62 | 0.619 | 4.14 | 2.28 |  | 4.1 | 1.45 | 0.769 | 0.319 | 0.756 | 1.13 | 0.632 | 0.254 | 1.94 | 0.47 | 1.94 |  |
| CNC(=S)NC(=O)c1c(Cl)n(C(=O)OC(C)(C)C)c2ccccc12 | > 100 | > 100 | > 100 | > 100 | > 100 | > 100 | > 100 |  | > 100 | > 100 | 89.6 | 35.4 | 59.6 | 94.2 | 27.6 | 56.7 | > 100 | 25.5 | 97.5 |  |
| Cc1cc(=O)oc2c(C)c(O)ccc12 | > 100 | > 100 | > 100 | > 100 | > 100 | > 100 | > 100 | > 100 |  | > 100 |  |  |  |  |  |  |  |  |  |  |
| CN(C)CCNC(=O)c1cccc2nc3cc(Cl)ccc3nc12 | 4.22 |  |  |  | 6.22 | 4.8 |  | > 100 | 15 | 10.7 |  |  |  |  |  |  |  |  |  |  |
| CCC(=O)Nc1ccccc1C#C/C=C\C#Cc1ccccc1SC | > 100 | 23.7 | > 100 | > 100 | > 100 | > 100 |  | > 100 | > 100 | 27.3 | 30.1 | 2.75 | 9.84 | 40.5 | 5.09 | 5.2 | 35.1 |  | 50.4 | 1.68 |
